Experimental findings from US11976083B2, “Inhibitors of peptidylarginine deiminases” (Gilead Sciences, Inc., priority 2020, dated 2024) are described below.

The target in this experiment is T1, human PAD4 (Homo sapiens, UniProt Q9UM07).
T1 construct: human PAD4 (NM_012387), A2-P663, was PCR amplified; His-SUMO (N, cleaved yes); made in house; host or cells: E. coli BL21(DE3)
Put plainly: In vitro PAD4 BAEE biochemical assay. As to conditions: BAEE substrate 3 mM, 5 nM PAD4, 2 mM calcium chloride; geometric mean of multiple experiments. The method in brief: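 Ammonia produced by BAEE deimination (3 mM substrate, 2 h, 25 °C) was read as fluorescent isoindole after o-phthalaldehyde/DTT derivatization, ex 405 nm/em 535 nm. Human PAD4 at 5 nM final, 2 mM calcium, pH 7.6 MOPS; compound preincubated 30 min. IC50s, normalized to BB-Cl-Amidine and DMSO controls, were geometric-mean averaged.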

T1 sequence (Q9UM07 2-663): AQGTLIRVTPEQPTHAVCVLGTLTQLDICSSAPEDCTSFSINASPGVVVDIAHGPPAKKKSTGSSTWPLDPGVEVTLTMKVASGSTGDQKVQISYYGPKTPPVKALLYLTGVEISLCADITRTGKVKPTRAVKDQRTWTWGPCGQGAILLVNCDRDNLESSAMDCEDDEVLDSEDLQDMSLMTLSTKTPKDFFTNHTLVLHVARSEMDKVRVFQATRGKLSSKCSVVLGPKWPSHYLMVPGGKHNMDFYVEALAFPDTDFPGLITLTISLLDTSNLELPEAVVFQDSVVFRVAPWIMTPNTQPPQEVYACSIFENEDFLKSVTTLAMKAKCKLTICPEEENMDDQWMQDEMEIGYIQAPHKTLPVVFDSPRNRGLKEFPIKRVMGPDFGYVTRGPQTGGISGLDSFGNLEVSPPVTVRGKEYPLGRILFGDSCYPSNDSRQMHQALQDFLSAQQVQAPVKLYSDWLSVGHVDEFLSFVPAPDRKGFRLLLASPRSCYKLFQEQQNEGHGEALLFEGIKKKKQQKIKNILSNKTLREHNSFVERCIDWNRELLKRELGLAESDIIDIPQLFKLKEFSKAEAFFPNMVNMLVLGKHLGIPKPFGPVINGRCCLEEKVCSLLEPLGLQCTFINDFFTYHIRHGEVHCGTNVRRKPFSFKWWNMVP

The IC50 is the point on the concentration scale where inhibition reaches its midpoint. For `COc1cc(C(=O)N2[C@H]3CC[C@@H]2[C@H](N)C3)cc2nc(-c3cc4ccc5nc4n3CCCCCCC(C)(C)C(=O)N[C@@H]5C)c(C)n12` [Example 121, (11~{R})-17-[7-[(1~{R},2~{R},4~{S})-2-amino-7-azabicyclo[2.2.1]heptane-7-carbonyl]-5-methoxy-3-methyl-imidazo[1,2-a]pyridin-2-yl]-8,8,11-trimethyl-1,10,19-triazatricyclo[10.5.2.0^{15,18}]nonadeca-12(19),13,15(18),16-tetraen-9-one], the IC50 was 46 nM.

As to `COc1cc(C(=O)N2[C@H]3CC[C@@H]2[C@H](N)C3)cc2nc(-c3cc4ccc5nc4n3CCCCCCC3(CCC3)C(=O)N[C@@H]5C)n(C)c12` [Example 278, (11~{R})-17-[5-[(1~{R},2~{R},4~{S})-2-amino-7-azabicyclo[2.2.1]heptane-7-carbonyl]-7-methoxy-1-methyl-benzimidazol-2-yl]-11-methyl-spiro[1,10,19-triazatricyclo[10.5.2.0^{15,18}]nonadeca-12(19),13,15(18),16-tetraene-8,1′-cyclobutane]-9-one], the IC50 amounted to 47 nM.

Regarding `COc1cc(C(=O)N[C@@H]2CNCCC2(F)F)cc2nc(-c3cc4ccc5nc4n3CCCCCCC(C)(C)C(=O)N[C@@H]5C)n(C)c12` [Example 296, ~{N}-[(3~{R})-4,4-difluoro-3-piperidyl]-7-methoxy-1-methyl-2-[(11~{R})-8,8,11-trimethyl-9-oxo-1,10,19-triazatricyclo[10.5.2.0^{15,18}]nonadeca-12(19),13,15(18),16-tetraen-17-yl]benzimidazole-5-carboxamide], the IC50 is 23700 nM.

For `COc1cc(C(=O)N2[C@H]3CC[C@@H]2[C@H](N)C3)cc2nc(-c3cc4ccc5nc4n3CCCCCCn3nccc3C(=O)N[C@@H]5C)c(C)n12` [Example 35, (2~{R})-17-[7-[(1~{R},2~{R},4~{S})-2-amino-7-azabicyclo[2.2.1]heptane-7-carbonyl]-5-methoxy-3-methyl-imidazo[1,2-a]pyridin-2-yl]-2-methyl-3,8,9,16,22-pentazatetracyclo[14.5.2.0^{5,9).0^{19,23}] tricosa-1(22),5,7,17,19(23),20-hexaen-4-one], the IC50 was 34 nM.

`COc1cc(C(=O)N2C[C@H](N)[C@@H]3CC[C@H]2C3)cc2nc(-c3cc4ccc5nc4n3CCCCC[C@]3(F)C[C@H]3C(=O)NC5(C)C)n(C)c12` [Example 933, (5~{S},7~{S})-14-[5-[(1~{S},4~{R},5~{R})-4-amino-2-azabicyclo[3.2.1]octane-2-carbonyl]-7-methoxy-1-methyl-benzimidazol-2-yl]-7-fluoro-2,2-dimethyl-3,13,19-triazatetracyclo[11.5.2.0^ {5,7}.0^{16,20}]icosa-1(18), 14,16,19-tetraen-4-one]: the IC50 amounted to 27 nM.

Regarding `COc1cc(C(=O)N2CC[C@@H](OC)[C@@H](N)C2)cc2nc(-c3cc4ccc5nc4n3CCCCCC[C@](F)(c3ccccn3)C(=O)N[C@@H]5C)n(C)c12` [Example 869, (8~{S},11~{R})-17-[5-[(3~ {S},4~{R})-3-amino-4-methoxy-piperidine-1-carbonyl]-7-methoxy-1-methyl-benzimidazol-2-yl]-8-fluoro-11-methyl-8-(2-pyridyl)-1,10,19-triazatricyclo[10.5.2.0^ {15,18}]nonadeca-12(19), 13,15(18),16-tetraen-9-one], the IC50 turned out to be 24 nM.

`COc1cc(C(=O)N2CCC[C@@H](N)C2)cc2nc(-c3cc4ccc5nc4n3CC3(CCCCCC(=O)N[C@@H]5C)CC3)n(C)c12` [Example 114, (11~{R})-17-[5-[(3~{R})-3-aminopiperidine-1-carbonyl]-7-methoxy-1-methyl-benzimidazol-2-yl]-11-methyl-spiro[1,10,19-triazatricyclo[10.5.2.0^{15,18}]nonadeca-12(19),13,15(18),16-tetraene-3,1′-cyclopropane]-9-one]: the IC50 was 61 nM.

As to `C[C@H]1NC(=O)c2ccc(Cl)nc2CC[C@H]2C[C@H]2Cn2c(-c3nc4cc(C(=O)N5C[C@H](N)[C@@H]6CC[C@H]5C6)cc(F)c4n3C3CC3)cc3ccc1nc32` [Example 710, (3~{R),5~{S},16~{R})-22-[5-[(1~{S},4~{R},5~{R})-4-amino-2-azabicyclo[3.2.1]octane-2-carbonyl]-1-cyclopropyl-7-fluoro-benzimidazol-2-yl]-10-chloro-16-methyl-1,9,15,24-tetrazapentacyclo[15.5.2.0^ {3,5}.0^{8,13}.0^{20,23}] tetracosa-8(13),9,11,17(24), 18,20(23),21-heptaen-14-one], the IC50 was 18 nM.

As for `CO[C@@H]1CCN(C(=O)c2ccc3c(c2)nc(-c2cc4ccc5nc4n2CC(F)(F)CCC[C@@H]2C[C@H]2C(=O)N[C@@H]5C)n3C2CC2)C[C@@H]1N` [Example 690, (2~{R},5~{R},7~{R})-14-[5-[(3~{S},4~{R})-3-amino-4-methoxy-piperidine-1-carbonyl]-1-cyclopropyl-benzimidazol-2-yl]-11,11-difluoro-2-methyl-3,13,19-triazatetracyclo [11.5.2.0^{5,7}.0^{16,20}] icosa-1(19),14,16(20), 17-tetraen-4-one], the IC50 came out at 54 nM.

Regarding `COc1cc(C(=O)N2[C@H]3CC[C@@H]2[C@H](N)C3)cc2nc(-c3cc4ccc5nc4n3CCCCCCCC(=O)N[C@@H]5C)c(C)n12` [Example 316, (11˜{R})-17-[7-[(1˜{R},2˜{R},4˜{S})-2-amino-7-azabicyclo[2.2.1]heptane-7-carbonyl]-5-methoxy-3-methyl-imidazo[1,2-a]pyridin-2-yl]-11-methyl-1,10,19-triazatricyclo[10.5.2.0^{15,18}]nonadeca-12(19),13,15(18),16-tetraen-9-one], the IC50 stood at 14 nM.

On to `COc1cc(C(=O)N2CCC[C@@H](N)C2)cc2nc(-c3cc4ccc5cc4n3CCCC3CCN(CC3)C(=O)c3ccccc3-5)n(C)c12` [Example 55, 17-[5-[(3~{R})-3-aminopiperidine-1-carbonyl]-7-methoxy-1-methyl-benzimidazol-2-yl]-9,16-diazapentacyclo[14.5.2.2^{9,12).0^{2,7}.0^ {19,23}]pentacosa-1(22),2,4,6,17,19(23),20-heptaen-8-one], for which the IC50 amounted to 4680 nM.

As for `COc1cc(C(=O)N2[C@H]3CC[C@@H]2[C@H](N)C3)cc2nc(-c3cc4ccc5nc4n3C[C@H]3C[C@@H]3COCCC(=O)N[C@@H]5C)c(C)n12` [Example 323, (3~{S),5~{S},12~{R})-18-[7-[(1~{R},2~{R},4~{S})-2-amino-7-azabicyclo[2.2.1]heptane-7-carbonyl]-5-methoxy-3-methyl-imidazo[1,2-a]pyridin-2-yl]-12-methyl-7-oxa-1,11,20-triazatetracyclo[11.5.2.0^{3,5}.0^{16,19}] icosa-13(20),14,16(19),17-tetraen-10-one], the IC50 was 14 nM.

`COc1cc(C(=O)N2CCC[C@@H](N)C2)cc2nc(-c3cc4ccc5nc4n3C[C@@H]3C[C@H]3C(OC)CCCC(=O)N[C@@H]5C)n(C)c12` (stereo partly drawn) [Example 264, (3~{R},5~{R},12~{R})-18-[5-[(3~{R})-3-aminopiperidine-1-carbonyl]-7-methoxy-1-methyl-benzimidazol-2-yl]-6-methoxy-12-methyl-1,11,20-triazatetracyclo[11.5.2.0^{3,5}.0^{16,19}] icosa-13(20),14,16(19),17-tetraen-10-one]: the IC50 was 91 nM.

Take `CO[C@@H]1CCN(C(=O)c2cc(F)c3c(c2)nc(-c2cc4ccc5nc4n2CCCCCc2nc4ccccc4nc2C(=O)N[C@@H]5C)n3C2CC2)C[C@@H]1N` [Example 828, (2~{R})-21-[5-[(3~{S), 4~{R})-3-amino-4-methoxy-piperidine-1-carbonyl]-1-cyclopropyl-7-fluoro-benzimidazol-2-yl]-2-methyl-3,6,13,20,26-pentazapentacyclo [18.5.2.0^{5,14}.0^{7, 12}.0^{23,27}]heptacosa-1(26),5(14),6,8,10,12,21,23(27), 24-nonaen-4-one]: the IC50 was 24 nM.

Regarding `COc1cc(C(=O)N2C[C@H](N)C[C@@H](F)C2)cc2nc(-c3cc4ccc5nc4n3CCCCCc3nc4ccsc4cc3C(=O)N[C@@H]5C)n(C)c12` [Example 794, (2~{R})-20-[5-[(3~{R},5~{R})-3-amino-5-fluoro-piperidine-1-carbonyl]-7-methoxy-1-methyl-benzimidazol-2-yl]-2-methyl-8-thia-3,12,19,25-tetrazapentacyclo[17.5.2.0^ {5,13}.0^{7,11).0^{22,26}] hexacosa-1(24),5(13), 6,9,11,20,22,25-octaen-4-one], the IC50 was 18 nM.

On to “(2~{R})-17-[5-[(1~{S},4~{R}, 5~{R})-4-amino-2-azabicyclo [3.2.1]octane-2-carbonyl]- 7-(difluoromethoxy)-1-methyl- benzimidazol-2-yl]-8-chloro- 2-methyl-3,9,16,22- tetrazatetracyclo[14.5.2.0^ {5,10).0^{19,23}]tricosa- 1(22),5(10),6,8,17,19(23),20- heptaen-4-one [Example 762]”, for which the IC50 is 26 nM.

For `COc1cc(C(=O)N2C[C@H]3C[C@H]3[C@@H](N)C2)cc2nc(-c3cc4ccc5nc4n3CCCCCCC(C)(C)C(=O)N[C@@H]5C)n(C)c12` [Example 206, (11~{R})-17-[5-[(1~{S},5~{R},6~{R})-5-amino-3-azabicyclo[4.1.0]heptane-3-carbonyl]-7-methoxy-1-methyl-benzimidazol-2-yl]-8,8,11-trimethyl-1,10,19-triazatricyclo[10.5.2.0^{15,18}]nonadeca-12(19),13,15(18),16-tetraen-9-one], the IC50 stood at 850 nM.

As for `COc1cc(C(=O)N2CC[C@@H](OC(F)F)[C@@H](N)C2)cc2nc(-c3cc4ccc5nc4n3CCCCCc3cnccc3C(=O)N[C@@H]5C)n(C)c12` [Example 492, (2~{R})-17-[5-[(3~{S}, 4~{R})-3-amino-4-(difluoromethoxy)piperidine-1-carbonyl]-7-methoxy-1-methyl-benzimidazol-2-yl]-2-methyl-3,8,16,22-tetrazatetracyclo [14.5.2.0^{5,10}.0^{19,23}] tricosa-1(22),5(10), 6,8,17,19(23),20-heptaen-4-one], the IC50 was 156 nM.
